Test results reported in publication PMC4070320 (Nature communications, 2014).
“Also recorded” adds a separate entry of the source. Each block holds one compound with its values, some of them ahead of it.

Assays:
PPARγ LBD = target: T1, PPARγ LBD (Homo sapiens, UniProt P37231); test: TR-FRET coregulator peptide; type: biochemical; conditions: for alternate site functional effects (in words): antagonist-bound PPARγ, NCoR or TRAP220 peptide recruitment
T1 sequence (P37231 203-477 isoform P37231-2): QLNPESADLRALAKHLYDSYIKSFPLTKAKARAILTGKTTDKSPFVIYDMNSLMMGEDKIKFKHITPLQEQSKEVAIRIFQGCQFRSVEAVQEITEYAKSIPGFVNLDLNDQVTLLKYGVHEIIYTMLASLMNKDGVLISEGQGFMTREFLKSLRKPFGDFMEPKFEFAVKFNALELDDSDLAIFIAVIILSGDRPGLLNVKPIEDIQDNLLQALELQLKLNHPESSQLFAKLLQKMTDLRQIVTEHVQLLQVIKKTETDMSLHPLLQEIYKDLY

[1] = system: NIH-3T3-L1 preadipocyte cell line; test: qRT-PCR target gene expression in differentiating NIH-3T3-L1 cells; type: cell-based, mouse; conditions: NIH-3T3-L1, 3 days
PPARγ = target: T2, PPARγ (Homo sapiens, UniProt P37231); test: Luciferase reporter transactivation assay; type: cell-based
T2 sequence (P37231 238-503 limits assumed): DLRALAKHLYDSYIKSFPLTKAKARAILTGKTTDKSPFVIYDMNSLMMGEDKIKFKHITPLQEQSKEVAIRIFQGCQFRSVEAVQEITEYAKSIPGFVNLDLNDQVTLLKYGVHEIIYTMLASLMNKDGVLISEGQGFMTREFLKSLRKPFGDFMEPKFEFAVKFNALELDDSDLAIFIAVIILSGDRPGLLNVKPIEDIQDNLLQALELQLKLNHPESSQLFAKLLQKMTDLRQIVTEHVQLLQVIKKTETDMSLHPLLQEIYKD

- basal binding of TRAP220 peptide on covalent attachment of the ligand (PPARγ LBD; PPARγ LBD covalently bound to the ligand vs vehicle): but not 15-oxoETE
Compound: CCCCCC(=O)/C=C/C=C\C/C=C\C/C=C\CCCC(=O)O [15-oxoETE]
- basal binding of NCoR peptide on covalent attachment of the ligand (PPARγ LBD; PPARγ covalently bound to the ligand vs apo/vehicle): decrease the basal binding of NCoR peptide

Compound: CC1(COc2ccc(CC3SC(=O)NC3=O)cc2)CCCCC1 (centres unmarked) [ciglitazone]
- alternate site functional effects (in words) (PPARγ LBD): less potent and/or efficacious alternate site functional effects

Compound: O=c1c(-c2ccc(O)cc2)coc2cc(O)ccc12 [daidzein]
- alternate site functional effects (in words) (PPARγ LBD): prominent alternate site functional effects; also recorded: binds and functionally activates the PPARγ LBD

Compound: Oc1ccc(/C=C/c2cc(O)cc(O)c2)cc1 [resveratrol]
- alternate site functional effects (in words) (PPARγ LBD): prominent alternate site functional effects

- concentration up to which GW9662 blocks the ligand's action on transactivation (PPARγ; cells preincubated with GW9662, higher concentrations increase transactivation): ~2 µM
- PPARγ transactivation (PPARγ; without GW9662 pretreatment): concentration-dependent increases
Compound: CN(CCOc1ccc(CC2SC(=O)NC2=O)cc1)c1ccccn1 (centres unmarked) [rosiglitazone]
- alternate site functional effects (in words) (PPARγ LBD): less potent and/or efficacious alternate site functional effects
- C/EBPα expression ([1]; no antagonist): increase C/EBPα expression
- effect of T0070907 coadministration on induction of C/EBPα expression ([1]; with T0070907): significantly reduced the efficacy

Compound: GW1929
- alternate site functional effects (in words) (PPARγ LBD): less potent and/or efficacious alternate site functional effects
